Measured values as given in ChEMBL document CHEMBL3885861, “Open TG-GATES”.

Species: Rattus norvegicus
Experiment: Open TG-GATES - Regimen: Daily Repeat
Type: toxicity, organism-based, Sprague-Dawley
Design: regimen Daily Repeat, gender Male, age 6 weeks
Settings: in vivo, po, route gavage; for APTT / Bas / Eos / Fbg / Hb / Ht / Lym / MCH / MCHC / MCV / Mono / Neu / PT / Plat / RBC / Ret / WBC: tissue Blood; for KIDNEY_L / KIDNEY_R / KIDNEY_TOTAL: tissue Kidney; for LIVER: tissue Liver; for A/G / ALP / ALT / AST / BUN / CRE / Ca / Cl / DBIL / GLC / IP / K / LDH / Na / PL / RALB / TBIL / TC / TG / TP / gamma-GTP: tissue Plasma
[1] = 50 mg/kg, 72 h, dose level Middle, time 3 day
[2] = 50 mg/kg, […], dose level Middle, time 7 day
[3] = 50 mg/kg, […], dose level Middle, time 14 day
[4] = 50 mg/kg, […], dose level Middle, time 28 day
[5] = 150 mg/kg, 72 h, dose level High, time 3 day
[6] = 150 mg/kg, […], dose level High, time 7 day
[7] = 150 mg/kg, […], dose level High, time 14 day
[8] = 150 mg/kg, […], dose level High, time 28 day

## CC(C)C(=O)Nc1ccc([N+](=O)[O-])c(C(F)(F)F)c1 [FLUTAMIDE]
[1]
  TERMINAL_BW: 215.7 g
  APTT: 18.3 s
  Bas: 0%
  Eos: 1.2%
  Fbg: 217 mg/dL
  Hb: 14.3 g/dL
  Ht: 43.4%
  Lym: 78%
  MCH: 20.9 pg
  MCHC: 32.9%
  MCV: 63.5 fL
  Mono: 2.6%
  Neu: 17.4%
  PT: 12.3 s
  Plat: 115.2 x10_4/uL
  RBC: 685 x10_4/ul
  Ret: 4.1%
  WBC: 77.6 x10_2/uL
  KIDNEY_L: 0.9 g
  KIDNEY_R: 1 g
  KIDNEY_TOTAL: 1.9 g
  LIVER: 11.1 g
  A/G: 1.7
  ALP: 1001 IU/L
  ALT: 38 IU/L
  AST: 66.2 IU/L
  BUN: 14.6 mg/dL
  CRE: 0.4 mg/dL
  Ca: 10.7 mg/dL
  Cl: 105 meq/L
  DBIL: 0.098 mg/dL
  GLC: 210.8 mg/dL
  IP: 6.9 mg/dL
  K: 3.6 meq/L
  LDH: 175.8 IU/L
  Na: 142 meq/L
  PL: 162.4 mg/dL
  RALB: 3.6 g/dL
  TBIL: 0.2 mg/dL
  TC: 97.8 mg/dL
  TG: 66.6 mg/dL
  TP: 5.7 g/dL
  gamma-GTP: 1 IU/L
[2]
  TERMINAL_BW: 244.8 g
  APTT: 16.9 s
  Bas: 0%
  Eos: 1%
  Fbg: 221.4 mg/dL
  Hb: 13.6 g/dL
  Ht: 40.5%
  Lym: 82.2%
  MCH: 20.6 pg
  MCHC: 33.7%
  MCV: 61.2 fL
  Mono: 2.6%
  Neu: 13.8%
  PT: 12.7 s
  Plat: 126 x10_4/uL
  RBC: 661.8 x10_4/ul
  Ret: 4.8%
  WBC: 115.5 x10_2/uL
  KIDNEY_L: 1 g
  KIDNEY_R: 1 g
  KIDNEY_TOTAL: 2 g
  LIVER: 12.8 g
  A/G: 1.7
  ALP: 753 IU/L
  ALT: 36.4 IU/L
  AST: 54.4 IU/L
  BUN: 15.6 mg/dL
  CRE: 0.4 mg/dL
  Ca: 10.9 mg/dL
  Cl: 103.8 meq/L
  DBIL: 0.09 mg/dL
  GLC: 215.2 mg/dL
  IP: 6.8 mg/dL
  K: 3.7 meq/L
  LDH: 169.2 IU/L
  Na: 140.6 meq/L
  PL: 156.2 mg/dL
  RALB: 3.7 g/dL
  TBIL: 0.1 mg/dL
  TC: 88.4 mg/dL
  TG: 67 mg/dL
  TP: 6 g/dL
  gamma-GTP: 0.2 IU/L
[3]
  TERMINAL_BW: 289.8 g
  APTT: 20.1 s
  Bas: 0%
  Eos: 1%
  Fbg: 216.8 mg/dL
  Hb: 14.2 g/dL
  Ht: 41.8%
  Lym: 82%
  MCH: 20.7 pg
  MCHC: 34.1%
  MCV: 60.9 fL
  Mono: 1.8%
  Neu: 14.4%
  PT: 12.6 s
  Plat: 116.7 x10_4/uL
  RBC: 687.8 x10_4/ul
  Ret: 4%
  WBC: 138.1 x10_2/uL
  KIDNEY_L: 1.2 g
  KIDNEY_R: 1.1 g
  KIDNEY_TOTAL: 2.3 g
  LIVER: 14.8 g
  A/G: 1.5
  ALP: 685.8 IU/L
  ALT: 33.2 IU/L
  AST: 59.2 IU/L
  BUN: 14.4 mg/dL
  CRE: 0.5 mg/dL
  Ca: 10.6 mg/dL
  Cl: 103.8 meq/L
  DBIL: 0.086 mg/dL
  GLC: 192 mg/dL
  IP: 6.2 mg/dL
  K: 3.8 meq/L
  LDH: 148 IU/L
  Na: 141.8 meq/L
  PL: 132 mg/dL
  RALB: 3.5 g/dL
  TBIL: 0.1 mg/dL
  TC: 70.6 mg/dL
  TG: 58.6 mg/dL
  TP: 5.9 g/dL
  gamma-GTP: 1 IU/L
[4]
  TERMINAL_BW: 352.3 g
  APTT: 19.2 s
  Bas: 0%
  Eos: 1%
  Fbg: 225 mg/dL
  Hb: 15 g/dL
  Ht: 42.3%
  Lym: 83.8%
  MCH: 20.2 pg
  MCHC: 35.6%
  MCV: 56.9 fL
  Mono: 2%
  Neu: 12.2%
  PT: 12.5 s
  Plat: 107.9 x10_4/uL
  RBC: 743.2 x10_4/ul
  Ret: 2.1%
  WBC: 114.3 x10_2/uL
  KIDNEY_L: 1.3 g
  KIDNEY_R: 1.3 g
  KIDNEY_TOTAL: 2.5 g
  LIVER: 16.8 g
  A/G: 1.5
  ALP: 449.8 IU/L
  ALT: 30.6 IU/L
  AST: 48.6 IU/L
  BUN: 17.4 mg/dL
  CRE: 0.5 mg/dL
  Ca: 10.5 mg/dL
  Cl: 103.8 meq/L
  DBIL: 0.078 mg/dL
  GLC: 227.2 mg/dL
  IP: 6.9 mg/dL
  K: 3.5 meq/L
  LDH: 124.2 IU/L
  Na: 141.8 meq/L
  PL: 167.4 mg/dL
  RALB: 3.8 g/dL
  TBIL: 0.1 mg/dL
  TC: 93.2 mg/dL
  TG: 54.2 mg/dL
  TP: 6.3 g/dL
  gamma-GTP: 1.6 IU/L
[5]
  TERMINAL_BW: 205.8 g
  APTT: 17.2 s
  Bas: 0%
  Eos: 0.8%
  Fbg: 219 mg/dL
  Hb: 14.3 g/dL
  Ht: 43.1%
  Lym: 87.4%
  MCH: 21.2 pg
  MCHC: 33.3%
  MCV: 63.6 fL
  Mono: 2.4%
  Neu: 8.6%
  PT: 12.6 s
  Plat: 125 x10_4/uL
  RBC: 677.2 x10_4/ul
  Ret: 3.5%
  WBC: 86 x10_2/uL
  KIDNEY_L: 0.9 g
  KIDNEY_R: 0.9 g
  KIDNEY_TOTAL: 1.8 g
  LIVER: 12.3 g
  A/G: 1.7
  ALP: 1049 IU/L
  ALT: 35.4 IU/L
  AST: 54.2 IU/L
  BUN: 13.2 mg/dL
  CRE: 0.5 mg/dL
  Ca: 10.5 mg/dL
  Cl: 103.4 meq/L
  DBIL: 0.1 mg/dL
  GLC: 203.2 mg/dL
  IP: 7.7 mg/dL
  K: 3.4 meq/L
  LDH: 196.2 IU/L
  Na: 141 meq/L
  PL: 185.2 mg/dL
  RALB: 3.6 g/dL
  TBIL: 0.2 mg/dL
  TC: 113.2 mg/dL
  TG: 77.8 mg/dL
  TP: 5.7 g/dL
  gamma-GTP: 1.4 IU/L
[6]
  TERMINAL_BW: 233.5 g
  APTT: 18.2 s
  Bas: 0%
  Eos: 1%
  Fbg: 224.6 mg/dL
  Hb: 13.5 g/dL
  Ht: 40.3%
  Lym: 81%
  MCH: 20.7 pg
  MCHC: 33.4%
  MCV: 62 fL
  Mono: 2.8%
  Neu: 14.6%
  PT: 12.6 s
  Plat: 123.7 x10_4/uL
  RBC: 651 x10_4/ul
  Ret: 4.3%
  WBC: 111.1 x10_2/uL
  KIDNEY_L: 1 g
  KIDNEY_R: 1 g
  KIDNEY_TOTAL: 2 g
  LIVER: 15.7 g
  A/G: 1.5
  ALP: 797.6 IU/L
  ALT: 32.8 IU/L
  AST: 46 IU/L
  BUN: 16 mg/dL
  CRE: 0.4 mg/dL
  Ca: 10.7 mg/dL
  Cl: 102.8 meq/L
  DBIL: 0.086 mg/dL
  GLC: 199.8 mg/dL
  IP: 7.1 mg/dL
  K: 3.5 meq/L
  LDH: 177.8 IU/L
  Na: 140.6 meq/L
  PL: 186.8 mg/dL
  RALB: 3.7 g/dL
  TBIL: 0.2 mg/dL
  TC: 110.6 mg/dL
  TG: 42.6 mg/dL
  TP: 6.2 g/dL
  gamma-GTP: 2 IU/L
[7]
  TERMINAL_BW: 269.7 g
  APTT: 18.9 s
  Bas: 0%
  Eos: 1%
  Fbg: 228.2 mg/dL
  Hb: 13.9 g/dL
  Ht: 41.5%
  Lym: 79.4%
  MCH: 19.9 pg
  MCHC: 33.6%
  MCV: 59.3 fL
  Mono: 3.2%
  Neu: 15.2%
  PT: 12.9 s
  Plat: 115.7 x10_4/uL
  RBC: 699.6 x10_4/ul
  Ret: 4.5%
  WBC: 115.1 x10_2/uL
  KIDNEY_L: 1.1 g
  KIDNEY_R: 1.2 g
  KIDNEY_TOTAL: 2.2 g
  LIVER: 16.8 g
  A/G: 1.7
  ALP: 726.8 IU/L
  ALT: 31 IU/L
  AST: 47.4 IU/L
  BUN: 15 mg/dL
  CRE: 0.5 mg/dL
  Ca: 10.5 mg/dL
  Cl: 103.4 meq/L
  DBIL: 0.096 mg/dL
  GLC: 181.2 mg/dL
  IP: 6.3 mg/dL
  K: 3.8 meq/L
  LDH: 173.8 IU/L
  Na: 140.4 meq/L
  PL: 168.8 mg/dL
  RALB: 3.8 g/dL
  TBIL: 0.2 mg/dL
  TC: 104.4 mg/dL
  TG: 32.2 mg/dL
  TP: 6 g/dL
  gamma-GTP: 2.8 IU/L
[8]
  TERMINAL_BW: 325.6 g
  APTT: 18.2 s
  Bas: 0%
  Eos: 1.2%
  Fbg: 237 mg/dL
  Hb: 13.7 g/dL
  Ht: 39.9%
  Lym: 81.6%
  MCH: 19.5 pg
  MCHC: 34.3%
  MCV: 56.9 fL
  Mono: 2.6%
  Neu: 13.6%
  PT: 12.8 s
  Plat: 98 x10_4/uL
  RBC: 700.6 x10_4/ul
  Ret: 3.7%
  WBC: 112 x10_2/uL
  KIDNEY_L: 1.1 g
  KIDNEY_R: 1.2 g
  KIDNEY_TOTAL: 2.3 g
  LIVER: 20 g
  A/G: 1.8
  ALP: 642.2 IU/L
  ALT: 29.2 IU/L
  AST: 45.2 IU/L
  BUN: 16.4 mg/dL
  CRE: 0.5 mg/dL
  Ca: 10.7 mg/dL
  Cl: 104 meq/L
  DBIL: 0.1 mg/dL
  GLC: 204.4 mg/dL
  IP: 7.6 mg/dL
  K: 3.7 meq/L
  LDH: 110.8 IU/L
  Na: 141.8 meq/L
  PL: 167.4 mg/dL
  RALB: 4.3 g/dL
  TBIL: 0.2 mg/dL
  TC: 97.4 mg/dL
  TG: 26.6 mg/dL
  TP: 6.8 g/dL
  gamma-GTP: 1.8 IU/L
